Measurements reported in PubChem BioAssay AID1919005 (Molecular Pharmacology Branch, DTP, NCI, 2023).
“And” between values parts separate entries of the source, which are not always exact repeats. Equal entries are not always repeated.

Test system: 855422-203-R-J1-PDC complex spheroid growth
Assay: Anticancer human tumor 855422-203-R-J1-PDC patient-derived bladder carcinoma cell line growth inhibition [AhR]
Conditions: for viability, T/C: stronger effect = lower value
Outline: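 Complex tumor spheroids co-cultured with HUVEC and human MSC stroma; AhR antagonists tested in combination with standard-of-care and investigational agents. Top concentration at or near clinical Cmax (else 10 microM), half-log dilutions; growth expressed as percent test/control.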

[1] = curve of first compound, second compound 0.1 µM
[2] = curve of first compound, second compound 0.316 µM
[3] = curve of first compound, second compound 1 µM
[4] = curve of first compound, second compound 3.16 µM
[5] = curve of first compound, second compound 10 µM
[6] = second compound 0.1 µM, first compound 0.0316 µM
[7] = second compound 0.1 µM, first compound 0.1 µM
[8] = second compound 0.1 µM, first compound 0.316 µM
[9] = second compound 0.1 µM, first compound 1 µM
[10] = second compound 0.1 µM, first compound 3.16 µM
[11] = second compound 0.1 µM, first compound 10 µM
[12] = second compound 0.316 µM, first compound 0.0316 µM
[13] = second compound 0.316 µM, first compound 0.1 µM
[14] = second compound 0.316 µM, first compound 0.316 µM
[15] = second compound 0.316 µM, first compound 1 µM
[16] = second compound 0.316 µM, first compound 3.16 µM
[17] = second compound 0.316 µM, first compound 10 µM
[18] = second compound 1 µM, first compound 0.0316 µM
[19] = second compound 1 µM, first compound 0.1 µM
[20] = second compound 1 µM, first compound 0.316 µM
[21] = second compound 1 µM, first compound 1 µM
[22] = second compound 1 µM, first compound 3.16 µM
[23] = second compound 1 µM, first compound 10 µM
[24] = second compound 3.16 µM, first compound 0.0316 µM
[25] = second compound 3.16 µM, first compound 0.1 µM
[26] = second compound 3.16 µM, first compound 0.316 µM
[27] = second compound 3.16 µM, first compound 1 µM
[28] = second compound 3.16 µM, first compound 3.16 µM
[29] = second compound 3.16 µM, first compound 10 µM
[30] = second compound 10 µM, first compound 0.0316 µM
[31] = second compound 10 µM, first compound 0.1 µM
[32] = second compound 10 µM, first compound 0.316 µM
[33] = second compound 10 µM, first compound 1 µM
[34] = second compound 10 µM, first compound 3.16 µM
[35] = second compound 10 µM, first compound 10 µM
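Also: spheroids exposed to agents for seven days before readout.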
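For viability, T/C in this document: percent of DMSO vehicle control luminescence viability.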

SMILES | IC50 [1] [nM] | IC50 [2] [nM] | IC50 [3] [nM] | IC50 [4] [nM] | IC50 [5] [nM] | viability, T/C [6] [%] | viability, T/C [7] [%] | viability, T/C [8] [%] | viability, T/C [9] [%] | viability, T/C [12] [%] | viability, T/C [13] [%] | viability, T/C [14] [%] | viability, T/C [15] [%] | viability, T/C [18] [%] | viability, T/C [19] [%] | viability, T/C [20] [%] | viability, T/C [21] [%] | viability, T/C [24] [%] | viability, T/C [25] [%] | viability, T/C [26] [%] | other results
O=C(c1cc(Cc2n[nH]c(=O)c3ccccc23)ccc1F)N1CCN(C(=O)C2CC2)CC1 + Cc1ccccc1N=Nc1ccc(NC(=O)c2ccnn2C)c(C)c1 | > 10000 | > 10000 | > 10000 | > 10000 | > 10000 | 96.5 | 102 | 99.3 | 95.1 | 102 | 100 | 97.8 | 93.1 | 97.6 | 102 | 103 | 100 | 90.2 | 91.7 | 92.2 | viability, T/C [10]: 90.9%; viability, T/C [11]: 93.2%; viability, T/C [16]: 94.2%; viability, T/C [17]: 93.1%; viability, T/C [22]: 101%; viability, T/C [23]: 94.6%; viability, T/C [27]: 94.3%; viability, T/C [28]: 93.3%; viability, T/C [29]: 84.2%; viability, T/C [30]: 80.9%; viability, T/C [31]: 79.3%; viability, T/C [32]: 76.9%; viability, T/C [33]: 79.7%; viability, T/C [34]: 74%; viability, T/C [35]: 63.6%
COc1cccc2c1C(=O)c1c(O)c3c(c(O)c1C2=O)CC(O)(C(=O)CO)CC3OC1CC(N)C(O)C(C)O1 (stereo not given) |  |  |  |  |  |  |  |  |  |  |  |  |  |  |  |  |  |  |  |  | viability, T/C (compound 0.0316 µM): 19% and 41.1% and 29.2%; viability, T/C (compound 0.1 µM): 13.1% and 28.8% and 16.9%; viability, T/C (compound 0.316 µM): 3.14% and 7.44% and 4.25%; viability, T/C (compound 1 µM): 0.97% and 2.58% and 1.55%; viability, T/C (compound 3.16 µM): 1.22% and 1.89% and 0.79%; viability, T/C (compound 10 µM): 1.82% and 4.62% and 3.32%; IC50 (curve of compound): < 31.6 nM
COc1cc(Nc2ncc3c(n2)-c2ccc(Cl)cc2C(c2c(F)cccc2OC)=NC3)ccc1C(=O)O |  |  |  |  |  |  |  |  |  |  |  |  |  |  |  |  |  |  |  |  | viability, T/C (compound 0.0316 µM): 102% and 109% and 95.2%; viability, T/C (compound 0.1 µM): 105% and 114% (2×); viability, T/C (compound 0.316 µM): 60.7% and 90.8% and 66.4%; viability, T/C (compound 1 µM): 55.4% and 89% and 51.6%; viability, T/C (compound 3.16 µM): 47.3% and 82.6% and 48.8%; viability, T/C (compound 10 µM): 45.4% and 68.6% and 47%
CC1COCCN1c1cc(-c2ccnn2C)c2ccnc(-c3ccn[nH]3)c2n1 (stereo not given) + Cc1cncc(-c2nc(NCCc3c[nH]c4ccccc34)c3ncn(C(C)C)c3n2)c1 | 254 | 405 | 361 | 80.4 | < 3.16 | 93.6 | 97.8 | 39.9 | 12.7 | 74.9 | 85.6 | 60.6 | 11.1 | 85.5 | 71.4 | 55.6 | 10.7 | 63 | 28.6 | 50.5 | viability, T/C (second compound 0.1 µM, first compound 0.00316 µM): 83.7%; viability, T/C (second compound 0.1 µM, first compound 0.01 µM): 96.2%; viability, T/C (second compound 0.316 µM, first compound 0.00316 µM): 91.3%; viability, T/C (second compound 0.316 µM, first compound 0.01 µM): 91.1%; viability, T/C (second compound 1 µM, first compound 0.00316 µM): 77.2%; viability, T/C (second compound 1 µM, first compound 0.01 µM): 79.9%; viability, T/C (second compound 3.16 µM, first compound 0.00316 µM): 75.6%; viability, T/C (second compound 3.16 µM, first compound 0.01 µM): 77.2%; viability, T/C [27]: 9.55%; viability, T/C (second compound 10 µM, first compound 0.00316 µM): 3.1%; viability, T/C (second compound 10 µM, first compound 0.01 µM): 4.56%; viability, T/C [30]: 3.12%; viability, T/C [31]: 6.41%; viability, T/C [32]: 2.62%; viability, T/C [33]: 1.62%
COc1ccc([C@@H](O)c2cc(-c3ncnc4cc(N5CCOCC5)ccc34)c(F)cc2Cl)nn1 |  |  |  |  |  |  |  |  |  |  |  |  |  |  |  |  |  |  |  |  | viability, T/C (compound 0.0316 µM): 115% and 108% (2×); viability, T/C (compound 0.1 µM): 97.6% and 101% and 89.4%; viability, T/C (compound 0.316 µM): 102% and 105% and 88.9%; viability, T/C (compound 1 µM): 89.7% and 98.2% and 82%; viability, T/C (compound 3.16 µM): 79% and 89.1% and 76.9%; viability, T/C (compound 10 µM): 52.3% and 71.5% and 57.8%; IC50 (curve of compound): > 10000 nM
CC1COCCN1c1cc(C2(S(C)(=N)=O)CC2)nc(-c2ccnc3[nH]ccc23)n1 (stereo not given) + Cc1ccccc1N=Nc1ccc(NC(=O)c2ccnn2C)c(C)c1 | > 10000 | > 10000 | > 10000 | > 10000 | 7860 | 95.5 | 95.4 | 97.4 | 99.4 | 105 | 99.2 | 104 | 101 | 102 | 98.4 | 95 | 106 | 91 | 91.4 | 92.9 | viability, T/C [10]: 110%; viability, T/C [11]: 54.9%; viability, T/C [16]: 121%; viability, T/C [17]: 55.4%; viability, T/C [22]: 125%; viability, T/C [23]: 60%; viability, T/C [27]: 102%; viability, T/C [28]: 109%; viability, T/C [29]: 50.8%; viability, T/C [30]: 83.5%; viability, T/C [31]: 79%; viability, T/C [32]: 83.6%; viability, T/C [33]: 93.3%; viability, T/C [34]: 82%; viability, T/C [35]: 41.4%

Now from value to compound, other results behind:

IC50 [1] [nM] | IC50 [2] [nM] | IC50 [3] [nM] | IC50 [4] [nM] | IC50 [5] [nM] | SMILES | viability, T/C [6] [%] | viability, T/C [7] [%] | viability, T/C [8] [%] | viability, T/C [9] [%] | viability, T/C [12] [%] | viability, T/C [13] [%] | viability, T/C [14] [%] | viability, T/C [15] [%] | viability, T/C [18] [%] | viability, T/C [19] [%] | viability, T/C [20] [%] | viability, T/C [21] [%] | viability, T/C [24] [%] | viability, T/C [25] [%] | viability, T/C [26] [%] | other results
265 | 293 | 248 | 167 | 73.1 | Nc1ccn(C2OC(CO)C(O)C2(F)F)c(=O)n1 (stereo not given) + Cc1ccccc1N=Nc1ccc(NC(=O)c2ccnn2C)c(C)c1 | 120 | 96.4 | 40.4 | 29.2 | 113 | 89.3 | 46.5 | 28.2 | 109 | 84.5 | 39.2 | 30.1 | 84.5 | 63.3 | 31.9 | viability, T/C [10]: 25.9%; viability, T/C [11]: 16.5%; viability, T/C [16]: 23.4%; viability, T/C [17]: 20.7%; viability, T/C [22]: 23.8%; viability, T/C [23]: 19.1%; viability, T/C [27]: 29.6%; viability, T/C [28]: 22.3%; viability, T/C [29]: 17.1%; viability, T/C [30]: 64%; viability, T/C [31]: 45.8%; viability, T/C [32]: 29.6%; viability, T/C [33]: 27.7%; viability, T/C [34]: 22.1%; viability, T/C [35]: 18%
< 31.6 | < 31.6 | < 31.6 | < 31.6 | < 31.6 | COc1cccc2c1C(=O)c1c(O)c3c(c(O)c1C2=O)CC(O)(C(=O)CO)CC3OC1CC(N)C(O)C(C)O1 (stereo not given) + Cc1ccccc1N=Nc1ccc(NC(=O)c2ccnn2C)c(C)c1 | 47 | 32.6 | 7.99 | 2.76 | 32 | 24.1 | 6.58 | 2.77 | 45.6 | 25.8 | 6.31 | 2.89 | 39.9 | 26.4 | 4.8 | viability, T/C [10]: 2.93%; viability, T/C [11]: 5.62%; viability, T/C [16]: 2.16%; viability, T/C [17]: 3.66%; viability, T/C [22]: 2.5%; viability, T/C [23]: 4.52%; viability, T/C [27]: 3.4%; viability, T/C [28]: 1.63%; viability, T/C [29]: 3.98%; viability, T/C [30]: 39.6%; viability, T/C [31]: 29.7%; viability, T/C [32]: 6.61%; viability, T/C [33]: 2.6%; viability, T/C [34]: 2.02%; viability, T/C [35]: 3.27%
232 | 166 | 175 | 99.5 | 132 | Nc1ccn(C2OC(CO)C(O)C2(F)F)c(=O)n1 (stereo not given) + CC(CO)NC(=O)c1cc(-c2ccc(Cl)cc2)nn(-c2cnn(C)c2)c1=O | 99.4 | 79.7 | 38.5 | 18.7 | 88.4 | 71.2 | 22.9 | 15.9 | 97.8 | 74.3 | 23.9 | 17.8 | 89.9 | 50.2 | 22.2 | viability, T/C [10]: 14.4%; viability, T/C [11]: 10.5%; viability, T/C [16]: 13.2%; viability, T/C [17]: 8.62%; viability, T/C [22]: 14.4%; viability, T/C [23]: 8.17%; viability, T/C [27]: 16.1%; viability, T/C [28]: 11.3%; viability, T/C [29]: 9.74%; viability, T/C [30]: 81.3%; viability, T/C [31]: 59.6%; viability, T/C [32]: 19.9%; viability, T/C [33]: 14.6%; viability, T/C [34]: 14.5%; viability, T/C [35]: 8.36%
